From US20260256792A1, “TREATMENT OF CHRONIC SPONTANEOUS URTICARIA BY ADMINISTERING (R)-2-[3-[4-AMINO-3-(2-FLUORO-4-PHENOXY-PHENYL)PYRAZOLO[3,4-D]PYRIMIDIN-1-YL]PIPERIDINE-1-CARBONYL]-4-METHYL-4-[4-(OXETAN-3-YL)PIPERAZIN-1-YL]PENT-2-ENENITRILE” (priority 2023, published 2026)

System: angioedema in CSU patients
Assay: Phase 2 CSU study: angioedema activity score over 7 days (AAS7)
Format: in vivo, human
Design: AAS7, Median / AAS7 Change from baseline, Median: scale not given here
From the text: The study comprises a 12 week, randomized, double-blind, placebo-controlled, multi-center, dose-ranging efficacy and safety phase, followed by a 40 week open label extension (OLE) phase (see FIG. 1). The study consists of three phases and an optional OLE phase. […] The weekly angioedema activity score (AAS7) was proposed as a tertiary endpoint. […] Patients were to complete the AAS using the e-diary. The e-diary was to be used once daily on the same time of each day recording of participant's answers to the angioedema activity score over 7 days (AAS7) questionnaire.

[1] = 400 mg TID, Week 12, omalizumab-naïve, angioedema at baseline
[2] = 400 mg TID, omalizumab-naïve population, angioedema at baseline
[3] = End of Study, 400 mg TID, Incomplete Responders with angioedema at baseline, both values imputed
[4] = Omalizumab-Naïve Population, 400 mg BID, End of Study
[5] = Omalizumab-Naïve Population, 400 mg BID, Week 1
[6] = Omalizumab-Naïve Population, 400 mg BID, Week 2
[7] = Omalizumab-Naïve Population, 400 mg BID, Week 3
[8] = Omalizumab-Naïve Population, 400 mg BID, Week 4
[9] = Omalizumab-Naïve Population, 400 mg BID, Week 5
[10] = Omalizumab-Naïve Population, 400 mg BID, Week 6
[11] = Omalizumab-Naïve Population, 400 mg BID, Week 7
[12] = Omalizumab-Naïve Population, 400 mg BID, Week 8
[13] = Omalizumab-Naïve Population, 400 mg BID, Week 9

Structure (SMILES): CC(C)(C=C(C#N)C(=O)N1CCC[C@@H](n2nc(-c3ccc(Oc4ccccc4)cc3F)c3c(N)ncnc32)C1)N1CCN(C2COC2)CC1 [rilzabrutinib, (R)-2-[3-[4-amino-3-(2-fluoro-4-phenoxy-phenyl)pyrazolo[3,4-d]pyrimidin-1-yl]piperidine-1-carbonyl]-4-methyl-4-[4-(oxetan-3-yl)piperazin-1-yl]pent-2-enenitrile]
- AAS7 Post-baseline Mean (SD) [1]: 7.10 (12.86)
- Participants with AAS7 = 0, Responder n (%) [1]: 14 (60.9) n (%)
- LS mean change from baseline in AAS7 at Week 12 [2]: −44.04
- decrease from baseline in AAS7 at Week 12 [2]: 84.63%
- patients achieving angioedema score (AAS7) of 0 (400 mg TID, within one week of initiating treatment, omalizumab-naïve): 30.4%
- AAS7, Mean (SD) [3]: 30.42 (14.73)
- AAS7, Median [3]: 30.42
- AAS7 Change from baseline, Mean (SD) [3]: 1.50 (2.12)
- AAS7 Change from baseline, Median [3]: 1.50
- AAS7 Percent change from baseline, Median [3]: 8.82
- AAS7, Mean (SD) [4]: 27.33 (24.01)
- AAS7, Median [4]: 37.00
- AAS7 Change from baseline, Mean (SD) [4]: −38.33 (25.03)
- AAS7 Change from baseline, Median [4]: −37.00
- AAS7 Percent change from baseline, Mean (SD) [4]: −57.91 (38.75) %
- AAS7 Percent change from baseline, Median [4]: −50.00%
- AAS7 Change from baseline, Mean (SD) [5]: −21.44 (18.46)
- AAS7 Change from baseline, Median [5]: −22.00
- AAS7 Percent change from baseline, Mean (SD) [5]: 62.04 (42.40) %
- AAS7 Percent change from baseline, Median [5]: −82.71%
- AAS7, Median [6]: 14.00
- AAS7 Change from baseline, Mean (SD) [6]: −22.60 (18.31)
- AAS7 Change from baseline, Median [6]: −23.00
- AAS7 Percent change from baseline, Mean (SD) [6]: −45.07 (90.72) %
- AAS7 Percent change from baseline, Median [6]: −77.03%
- AAS7, Median [7]: 6.50
- AAS7 Change from baseline, Mean (SD) [7]: −30.63 (24.46)
- AAS7 Change from baseline, Median [7]: −25.88
- AAS7 Percent change from baseline, Mean (SD) [7]: −45.93 (125.55) %
- AAS7 Percent change from baseline, Median [7]: −89.45%
- AAS7 Change from baseline, Mean (SD) [8]: −30.05 (20.80)
- AAS7 Change from baseline, Median [8]: −28.00
- AAS7 Percent change from baseline, Mean (SD) [8]: −53.69 (109.03) %
- AAS7 Percent change from baseline, Median [8]: −82.09%
- AAS7, Median [9]: 0.00
- AAS7 Change from baseline, Mean (SD) [9]: −30.86 (24.37)
- AAS7 Change from baseline, Median [9]: −24.00
- AAS7 Percent change from baseline, Mean (SD) [9]: −66.40 (54.16) %
- AAS7 Percent change from baseline, Median [9]: −100.00%
- AAS7, Median [10]: 3.00
- AAS7 Change from baseline, Mean (SD) [10]: −31.58 (23.39)
- AAS7 Change from baseline, Median [10]: −24.00
- AAS7 Percent change from baseline, Mean (SD) [10]: −70.72 (39.56) %
- AAS7 Percent change from baseline, Median [10]: −92.19%
- AAS7, Median [11]: 4.67
- AAS7 Change from baseline, Mean (SD) [11]: −33.54 (24.64)
- AAS7 Change from baseline, Median [11]: −30.00
- AAS7 Percent change from baseline, Mean (SD) [11]: −68.05 (40.33) %
- AAS7 Percent change from baseline, Median [11]: −88.60%
- AAS7, Median [12]: 0.00
- AAS7 Change from baseline, Mean (SD) [12]: −36.21 (24.67)
- AAS7 Change from baseline, Median [12]: −32.00
- AAS7 Percent change from baseline, Mean (SD) [12]: −74.90 (43.31) %
- AAS7 Percent change from baseline, Median [12]: −100.00%
- AAS7, Median [13]: 0.00
- AAS7 Change from baseline, Mean (SD) [13]: −34.83 (26.07)
- AAS7 Change from baseline, Median [13]: −32.00
- AAS7 Percent change from baseline, Mean (SD) [13]: −67.10 (66.88) %
- AAS7 Percent change from baseline, Median [13]: −100.00%
